In patent publication US3981999A, “Fish disease treatment” (Dainippon Pharmaceutical Co., Ltd., priority 1973, dated 1976):
Converted amounts (≈) assume the structure as drawn.

Columns and labels:
Vibrio anguillarum A-8 = experiment: MIC by broth serial dilution; type: cell-based; settings: A8, 3% NaCl-bouillon pH 7.2, 25°C, 48 hours, read-out: MIC
Description: (§1) The MIC (minimum inhibitory concentration) of a test compound was determined by the serial dilution method on various pathogenic microorganisms incubated under the following experimental conditions. The lowest concentration at which the visible growth of the organism was inhibited was considered as MIC. […]
(§2) the broth-dilution method bouillon, pH 7.2, except for Vibrio (3% NaCl-bouillon, pH 7.2), Pasteurella (2% NaCl-Brain Heart Infusion, pH 7.3 and Chondrococcus (TY medium, pH 7.3) 1 drop of a bacterial suspension per test tube (100 - 1000 minimal growing units in the medium) 25°C, except for Pseud. anguilliseptica (20°C)
(§3) 48 hours, except for Pseudo. anguilliseptica ([…])

[1] = system: Pasteurella piscicida Al-3; experiment: MIC by broth serial dilution; type: cell-based; settings: Photobacterium damselae, AL3; 2% NaCl-Brain Heart Infusion pH 7.3, 25°C, 48 hours; read-out: MIC
Description: as §1, §2, §3

[2] = system: Aeromonas salmonicida Hara-2; experiment: MIC by broth serial dilution; type: cell-based; settings: HARA2, bouillon pH 7.2, 25°C, 48 hours, read-out: MIC
Description: as §1, §2, §3

[3] = system: Pasteurella piscicida K-1; experiment: MIC by broth serial dilution; type: cell-based; settings: Photobacterium damselae, K1; 2% NaCl-Brain Heart Infusion pH 7.3, 25°C, 48 hours; read-out: MIC
Description: as §1, §2, §3

Chondrococcus sp K-1 = experiment: MIC by broth serial dilution; type: cell-based; settings: TY medium pH 7.3, 25°C, 48 hours; read-out: MIC
Description: as §1, §2, §3

[4] = system: Aeromonas salmonicida Kawazu; experiment: MIC by broth serial dilution; type: cell-based; settings: bouillon pH 7.2, 25°C, 48 hours, read-out: MIC
Description: as §1, §2, §3

Chondrococcus sp K-2 = experiment: MIC by broth serial dilution; type: cell-based; settings: TY medium pH 7.3, 25°C, 48 hours; read-out: MIC
Description: as §1, §2, §3

[5] = system: Aeromonas salmonicida Hara-1; experiment: MIC by broth serial dilution; type: cell-based; settings: HARA1, bouillon pH 7.2, 25°C, 48 hours, read-out: MIC
Description: as §1, §2, §3

[6] = system: Aeromonas salmonicida Kusuda; experiment: MIC by broth serial dilution; type: cell-based; settings: bouillon pH 7.2, 25°C, 48 hours, read-out: MIC
Description: as §1, §2, §3

[7] = system: Aeromonas liquefaciens Y-62; experiment: MIC by broth serial dilution; type: cell-based; settings: Aeromonas hydrophila, Y62; bouillon pH 7.2, 25°C, 48 hours; read-out: MIC
Description: as §1, §2, §3

Vibrio anguillarum Km-30 = experiment: MIC by broth serial dilution; type: cell-based; settings: KM30, 3% NaCl-bouillon pH 7.2, 25°C, 48 hours, read-out: MIC
Description: as §1, §2, §3

Vibrio anguillarum K-3 = experiment: MIC by broth serial dilution; type: cell-based; settings: K3, 3% NaCl-bouillon pH 7.2, 25°C, 48 hours, read-out: MIC
Description: as §1, §2, §3

[8] = system: Pseudomonas anguilliseptica T-2; experiment: MIC by broth serial dilution; type: cell-based; settings: T2, bouillon pH 7.2, 20°C, 7 hours, read-out: MIC
Description: as §1, §2, §3

[9] = system: Pseudomonas anguilliseptica S-1; experiment: MIC by broth serial dilution; type: cell-based; settings: S1, bouillon pH 7.2, 20°C, 7 hours, read-out: MIC
Description: as §1, §2, §3

[10] = system: Aeromonas liquefacieus Y-62; experiment: Oral effect against Aeromonas infection in goldfish; type: in vivo; settings: for Percent survival: 5 days; for Number of surviving fish after 1 day / Number of surviving fish after 2 days / Number of surviving fish after 3 days / Number of surviving fish after 4 days / Number of surviving fish after 5 days: day 0: PA 10, others 5 fish
Description: Goldfish each weighing about 6 - 7 g were given a fish food containing each of the test compounds. After 30 minutes, the fish were infected intramuscularly with Aeromonas liquefacieus Y-62 (about 10^7 germs/fish) under ether anesthesia. […] In the same manner, the control group was given the same fish food without the test compound.

goldfish = experiment: Oral toxicity in goldfish; type: in vivo; settings: 10% in diet (PA 800, AT-1493 955, AT-1557 935, AT-1475 923 mg/kg); for Mortality: 7 days; for Number of the survival after 1 day from administration / Number of the survival after 2 days from administration / Number of the survival after 3 days from administration / Number of the survival after 4 days from administration / Number of the survival after 5 days from administration / Number of the survival after 6 days from administration / Number of the survival after 7 days from administration: day 0: 5 fish
Description: A diet containing 10% of each of the test compounds was given orally to groups each consisting of 5 goldfish each weighing 6 to 10 g, and observation was made for the following 7 days. The temperature of the water was maintained at 28°C.

[11] = 0.03% in diet (PA 2.5, AT-1493 2.5, AT-1557 2.2 mg/kg)
[12] = 0.1% in diet (PA 6.1, AT-1493 7.5, AT-1557 7.6, AT-1475 7.5 mg/kg)

C=Cn1cc(C(=O)O)c(=O)c2ccc(N3CCN(C)CC3)cc21 [AT-1493, 1,4-Dihydro-7-(4-methyl-1-piperazinyl)-4-oxo-1-vinylquinoline-3-carboxylicacid]
MIC (Vibrio anguillarum A-8): 3 µg/mL (≈ 9.57 µM)
MIC [1]: 1 µg/mL (≈ 3.19 µM)
MIC [2]: 0.1 µg/mL (≈ 0.319 µM)
MIC [3]: 0.3 µg/mL (≈ 0.957 µM)
MIC (Chondrococcus sp K-1): 3 µg/mL (≈ 9.57 µM)
MIC [4]: 0.1 µg/mL (≈ 0.319 µM)
MIC (Chondrococcus sp K-2): 3 µg/mL (≈ 9.57 µM)
MIC [5]: 0.1 µg/mL (≈ 0.319 µM)
MIC [6]: 0.1 µg/mL (≈ 0.319 µM)
MIC [7]: 0.1 µg/mL (≈ 0.319 µM)
MIC (Vibrio anguillarum Km-30): 3 µg/mL (≈ 9.57 µM)
MIC (Vibrio anguillarum K-3): 3 µg/mL (≈ 9.57 µM)
MIC [8]: 0.1 µg/mL (≈ 0.319 µM)
MIC [9]: 0.1 µg/mL (≈ 0.319 µM)
Percent survival [10, 11]: 100%
Number of surviving fish after 1 day [10, 11]: 5
Number of surviving fish after 2 days [10, 11]: 5
Number of surviving fish after 3 days [10, 11]: 5
Number of surviving fish after 4 days [10, 11]: 5
Number of surviving fish after 5 days [10, 11]: 5
Percent survival [10, 12]: 100%
Number of surviving fish after 1 day [10, 12]: 5
Number of surviving fish after 2 days [10, 12]: 5
Number of surviving fish after 3 days [10, 12]: 5
Number of surviving fish after 4 days [10, 12]: 5
Number of surviving fish after 5 days [10, 12]: 5
Mortality (goldfish): 0%
Number of the survival after 1 day from administration (goldfish): 5
Number of the survival after 2 days from administration (goldfish): 5
Number of the survival after 3 days from administration (goldfish): 5
Number of the survival after 4 days from administration (goldfish): 5
Number of the survival after 5 days from administration (goldfish): 5
Number of the survival after 6 days from administration (goldfish): 5
Number of the survival after 7 days from administration (goldfish): 5

C=Cn1cc(C(=O)O)c(=O)c2ccc(N3CCN(CC)CC3)cc21 [AT-1557, 1,4-Dihydro-7-(4-ethyl-1-piperazinyl)-4-oxo-1-vinylquinoline-3-carboxylic acid]
MIC (Vibrio anguillarum A-8): 3 µg/mL (≈ 9.16 µM)
MIC [1]: 1 µg/mL (≈ 3.05 µM)
MIC [2]: 0.3 µg/mL (≈ 0.916 µM)
MIC [3]: 1 µg/mL (≈ 3.05 µM)
MIC (Chondrococcus sp K-1): 1 µg/mL (≈ 3.05 µM)
MIC [4]: 0.1 µg/mL (≈ 0.305 µM)
MIC (Chondrococcus sp K-2): 1 µg/mL (≈ 3.05 µM)
MIC [5]: 0.3 µg/mL (≈ 0.916 µM)
MIC [6]: 0.3 µg/mL (≈ 0.916 µM)
MIC [7]: 0.3 µg/mL (≈ 0.916 µM)
MIC (Vibrio anguillarum Km-30): 10 µg/mL (≈ 30.5 µM)
MIC (Vibrio anguillarum K-3): 10 µg/mL (≈ 30.5 µM)
MIC [8]: 0.1 µg/mL (≈ 0.305 µM)
MIC [9]: 0.1 µg/mL (≈ 0.305 µM)
Percent survival [10, 11]: 80%
Number of surviving fish after 1 day [10, 11]: 5
Number of surviving fish after 2 days [10, 11]: 4
Number of surviving fish after 3 days [10, 11]: 4
Number of surviving fish after 4 days [10, 11]: 4
Number of surviving fish after 5 days [10, 11]: 4
Percent survival [10, 12]: 100%
Number of surviving fish after 1 day [10, 12]: 5
Number of surviving fish after 2 days [10, 12]: 5
Number of surviving fish after 3 days [10, 12]: 5
Number of surviving fish after 4 days [10, 12]: 5
Number of surviving fish after 5 days [10, 12]: 5
Mortality (goldfish): 0%
Number of the survival after 1 day from administration (goldfish): 5
Number of the survival after 2 days from administration (goldfish): 5
Number of the survival after 3 days from administration (goldfish): 5
Number of the survival after 4 days from administration (goldfish): 5
Number of the survival after 5 days from administration (goldfish): 5
Number of the survival after 6 days from administration (goldfish): 5
Number of the survival after 7 days from administration (goldfish): 5
